From ChEMBL document CHEMBL6071163, “The multicomponent Passerini reaction as a means of accessing diversity in structure, activity and properties: Soft and hard vanilloid/cannabinoid modulators” (Eur J Med Chem, 2024)

What was measured:
[1] = biological target: T1, Transient receptor potential cation channel subfamily V member 1 (Homo sapiens, UniProt Q8NER1); assay: Agonist activity at recombinant human TRPV1 transfected in HEK293 cells assessed as increase in intracellular Ca2+ influx by Fluo-4 NW Ca2+ dye based microfluorometric calcium flux assay
[2] = biological target: Cannabinoid receptor 1 (Homo sapiens, UniProt P21554); assay: Agonist activity at recombinant human CB1 receptor expressed in HEK293-CNG cells assessed as reduction in forskolin-induced cAMP accumulation incubated for 60 mins by fluorescence based analysis; type: functional, cell-based
[3] = Metabolic stability in human plasma assessed as parent compound remaining at 50 uM incubated for 60 mins
[4] = Metabolic stability in human liver S9 fraction assessed as parent compound remaining at 5 uM incubated for 60 mins
[5] = Metabolic stability in human skin S9 fraction assessed as parent compound remaining at 5 uM incubated for 60 mins
[6] = Metabolic stability in human HaCaT cells assessed as parent compound remaining at 5 uM incubated for 120 mins
[7] = Metabolic stability in human Keratinocytes assessed as parent compound remaining at 5 uM incubated for 120 mins
[8] = Metabolic stability in human Fibroblast assessed as parent compound remaining at 5 uM incubated for 120 mins; settings: fibroblasts
[9] = biological target: T2, Cannabinoid receptor 2 (Homo sapiens, UniProt P34972); assay: Agonist activity at recombinant human CB2 receptor expressed in HEK293-CNG cells assessed as reduction in forskolin-induced cAMP accumulation incubated for 60 mins by fluorescence based analysis; type: functional, cell-based
[10] = biological target: T2, Cannabinoid receptor 2; assay: Antagonist activity at recombinant human CB2 receptor expressed in HEK293-CNG cells assessed as cAMP accumulation incubated for 60 mins in presence of forskolin by fluorescence based analysis; type: functional, cell-based
[11] = biological target: T1, Transient receptor potential cation channel subfamily V member 1
[12] = biological target: T1, Transient receptor potential cation channel subfamily V member 1; assay: Agonist activity at human TRPV1 expressed in HEK293 cells assessed as induction of current by patch clamp assay

T1 sequence (Q8NER1 whole entry): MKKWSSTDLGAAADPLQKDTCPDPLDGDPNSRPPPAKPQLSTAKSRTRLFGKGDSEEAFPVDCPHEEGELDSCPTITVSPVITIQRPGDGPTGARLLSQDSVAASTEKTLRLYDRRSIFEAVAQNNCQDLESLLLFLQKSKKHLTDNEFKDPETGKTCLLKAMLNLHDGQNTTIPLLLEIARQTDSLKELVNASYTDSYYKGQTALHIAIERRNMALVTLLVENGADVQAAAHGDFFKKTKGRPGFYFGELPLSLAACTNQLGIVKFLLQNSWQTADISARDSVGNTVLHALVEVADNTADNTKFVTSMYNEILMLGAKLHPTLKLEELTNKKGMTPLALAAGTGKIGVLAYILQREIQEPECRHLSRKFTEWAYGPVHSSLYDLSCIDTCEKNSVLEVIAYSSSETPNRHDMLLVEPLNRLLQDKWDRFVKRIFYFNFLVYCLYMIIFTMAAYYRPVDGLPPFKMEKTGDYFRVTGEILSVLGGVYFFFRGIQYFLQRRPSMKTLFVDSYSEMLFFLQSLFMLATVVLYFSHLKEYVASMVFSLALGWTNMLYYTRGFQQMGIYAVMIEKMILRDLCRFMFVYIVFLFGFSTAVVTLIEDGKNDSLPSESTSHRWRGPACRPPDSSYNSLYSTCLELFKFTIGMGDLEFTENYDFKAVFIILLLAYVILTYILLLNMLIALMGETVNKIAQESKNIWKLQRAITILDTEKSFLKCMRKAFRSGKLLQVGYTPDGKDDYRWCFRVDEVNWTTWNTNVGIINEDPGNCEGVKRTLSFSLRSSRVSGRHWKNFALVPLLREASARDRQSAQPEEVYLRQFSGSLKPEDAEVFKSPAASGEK
Chain of Cannabinoid receptor 1 (P21554 whole entry): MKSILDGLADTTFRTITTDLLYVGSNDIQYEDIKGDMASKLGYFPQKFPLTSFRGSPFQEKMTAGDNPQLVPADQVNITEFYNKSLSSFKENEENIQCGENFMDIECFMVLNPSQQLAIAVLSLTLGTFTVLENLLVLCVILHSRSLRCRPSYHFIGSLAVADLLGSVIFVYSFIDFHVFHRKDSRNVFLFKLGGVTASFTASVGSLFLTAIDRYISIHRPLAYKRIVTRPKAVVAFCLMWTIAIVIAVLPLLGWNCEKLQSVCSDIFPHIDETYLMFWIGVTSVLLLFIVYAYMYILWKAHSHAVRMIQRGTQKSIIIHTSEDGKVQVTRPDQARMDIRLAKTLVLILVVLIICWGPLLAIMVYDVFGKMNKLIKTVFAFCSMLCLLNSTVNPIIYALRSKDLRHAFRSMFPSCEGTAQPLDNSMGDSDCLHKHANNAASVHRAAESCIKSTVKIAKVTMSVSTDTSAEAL
T2 sequence (P34972 whole entry): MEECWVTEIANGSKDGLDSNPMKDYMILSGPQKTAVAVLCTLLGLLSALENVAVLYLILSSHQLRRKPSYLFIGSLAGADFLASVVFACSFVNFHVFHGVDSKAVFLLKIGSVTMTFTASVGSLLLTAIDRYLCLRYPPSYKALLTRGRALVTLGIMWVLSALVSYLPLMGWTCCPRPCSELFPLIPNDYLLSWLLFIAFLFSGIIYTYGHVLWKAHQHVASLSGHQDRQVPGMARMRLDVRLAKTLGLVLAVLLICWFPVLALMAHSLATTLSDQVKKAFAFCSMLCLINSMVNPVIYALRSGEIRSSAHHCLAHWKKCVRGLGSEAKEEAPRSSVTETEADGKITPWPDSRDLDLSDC

Work on `CC(C)=CCC/C(C)=C/C(=O)OCC(=O)NC1CC1` yielded an EC50 [1] of 33.1 µM.

With `CCCCCCCC/C=C\CCCCCCCC(=O)OCC(=O)NC1CC1` the EC50 [1] was 0.7 µM and the EC50 [2] was 27.9 µM.

In the case of `CCCCCC[C@H](C/C=C\CCCCCCCC(=O)OCC(=O)NCCO)OC(=O)Cc1ccccc1`, the EC50 [1] is reported as 3.7 µM.

For `C=CCNC(=O)COC(=O)CCCCCCC/C=C\CCCCCCCC`, the EC50 [1] was 4.7 µM.

`C=CCNC(=O)COC(=O)CCCCCCC` showed an EC50 [1] of 23.3 µM.

`CCCCC/C=C\C/C=C\C/C=C\C/C=C\CCCC(=O)OCC(=O)NCCO` gave an EC50 [1] of 2.1 µM, an EC50 [2] of 30.6 µM and a remaining at 1 h, 50 µM [3] of over 99%. It also gave a remaining at 1 h, 5 µM [4] of 24%, a remaining at 1 h, 5 µM [5] of 76% and a remaining at 2 h, 5 µM [6] of over 99%. For the same molecule, the remaining at 2 h, 5 µM [7] was 97% and the remaining at 2 h, 5 µM [8] was 73%.

Molecule `CCCCC/C=C\C/C=C\C/C=C\C/C=C\CCCC(=O)OCC(=O)NC1CC1` has an EC50 [2] of 13.8 µM.

Molecule `C=CCNC(=O)COC(=O)CC/C(C)=C/CC/C(C)=C/CC/C=C(\C)CC/C=C(\C)CCC=C(C)C` has an EC50 [1] of 36.4 µM.

In the case of `CCCCCCCC(=O)OCC(=O)NCCc1ccc(O)c(O)c1`, the EC50 [1] is reported as 10.6 µM and the EC50 [2] is reported as 13.9 µM.

Work on `O=C(CO)NC1CC1` yielded an EC50 [1] of over 100 µM, an EC50 [2] of over 100 µM and an EC50 [9] of over 100 µM.

With `COc1ccc(C(=O)c2c(C)n(CCN3CCOCC3)c3cc(I)ccc23)cc1` the IC50 [10] was 0.03 µM.

`C=CCNC(=O)COC(=O)CCCCCCC/C=C\C[C@@H](CCCCCC)OC(=O)Cc1ccccc1` showed an EC50 [1] of 15.2 µM.

In the case of `CCCCCCCCCCCC(=O)OCC(=O)NC1CC1`, the EC50 [1] is reported as 1.7 µM, the EC50 [9] is reported as 87.6 µM and the remaining at 1 h, 50 µM [3] is reported as 80%. For the same molecule, the remaining at 1 h, 5 µM [4] was 1%, the remaining at 1 h, 5 µM [5] was 69% and the remaining at 2 h, 5 µM [6] was 94%. It also gave a remaining at 2 h, 5 µM [7] of 99% and a remaining at 2 h, 5 µM [8] of 62%.

Work on `C=CCNC(=O)COC(=O)CCCCCCCCCCC` yielded an EC50 [1] of 11.4 µM.

`O=C(CO)NCCc1cc(O)c(O)cc1I` gave an EC50 [2] of over 100 µM, an EC50 [9] of over 100 µM and an IC50 [11] of over 100 µM.

`O=C(CO)NCCO` showed an EC50 [1] of over 100 µM, an EC50 [2] of over 100 µM and an EC50 [9] of over 100 µM.

Work on `CCCCCC[C@H](C/C=C\CCCCCCCC(=O)OCC(=O)NCCc1cc(O)c(O)cc1I)OC(=O)Cc1ccccc1` yielded an IC50 [11] of over 100 µM.

For `CC(C)=CCC/C(C)=C/C(=O)OCC(=O)NCCO`, the EC50 [1] was 26.8 µM, the EC50 [9] was 37.8 µM and the remaining at 1 h, 50 µM [3] was 89%. The remaining at 1 h, 5 µM [4] was 89%, the remaining at 1 h, 5 µM [5] was 96% and the remaining at 2 h, 5 µM [6] was 98%. The remaining at 2 h, 5 µM [7] was 96%, the remaining at 2 h, 5 µM [8] was 93% and the EC50 [12] was 47.5 µM.

For `CCCCCC[C@H](C/C=C\CCCCCCCC(=O)OCC(=O)NCCc1ccc(O)c(O)c1)OC(=O)Cc1ccccc1`, the EC50 [1] was 3.1 µM.

Molecule `CC(C)=CCC/C(C)=C/CC/C(C)=C/CC/C=C(\C)CC/C=C(\C)CCC(=O)OCC(=O)NC1CC1` has an EC50 [1] of 13.4 µM and an EC50 [2] of 196 µM.

`CCCCCCCCCCCC(=O)OCC(=O)NCCc1cc(O)c(O)cc1I` gave an IC50 [11] of 64.9 µM.

Work on `CCCCC/C=C\C/C=C\C/C=C\C/C=C\CCCC(=O)OCC(=O)NCCc1ccc(O)c(O)c1` yielded an EC50 [1] of 1 µM.

Work on `O=C(CO)NCCc1ccc(O)c(O)c1` yielded an EC50 [2] of over 100 µM and an EC50 [9] of over 100 µM.

Work on `CCCCCC[C@H](C/C=C\CCCCCCCC(=O)OCC(=O)NC1CC1)OC(=O)Cc1ccccc1` yielded an EC50 [1] of 2.6 µM.

Molecule `CC(C)=CCC/C(C)=C/C(=O)OCC(=O)NCCc1cc(O)c(O)cc1I` has an EC50 [2] of 41.4 µM and an EC50 [9] of 36.8 µM.

In the case of `CCCCCCCC(=O)OCC(=O)NCCc1cc(O)c(O)cc1I`, the EC50 [9] is reported as over 100 µM, the remaining at 1 h, 50 µM [3] is reported as 13% and the remaining at 1 h, 5 µM [4] is reported as 1%. It also gave a remaining at 1 h, 5 µM [5] of 27%, a remaining at 2 h, 5 µM [6] of 73% and a remaining at 2 h, 5 µM [7] of 85%. The remaining at 2 h, 5 µM [8] was 69% and the IC50 [11] was 54.2 µM.

With `C=CCNC(=O)COC(=O)CCC/C=C\C/C=C\C/C=C\C/C=C\CCCCC` the EC50 [1] was 21.8 µM, the EC50 [2] was 16.6 µM and the EC50 [9] was 62 µM.

`C=CCNC(=O)CO` showed an EC50 [1] of over 100 µM, an EC50 [2] of over 100 µM and an EC50 [9] of over 100 µM.

Molecule `CC(C)=CCC/C(C)=C/C(=O)OCC(=O)NCCc1ccc(O)c(O)c1` has an EC50 [2] of 118 µM and an EC50 [9] of 89.9 µM.
